19 molecules from patent US9840495B2, “Oxindole derivatives carrying a piperidyl-substituted azetidinyl substituent and use thereof for treating vasopressine-related diseases” (AbbVie Deutschland GmbH & Co. KG, priority 2013, dated 2017) can be followed below.

Structures can show the parent of a compound that is named as a salt. Where only a bound is given, the exact number is not on record here.

The target of test [1] is human vasopressin V1a receptor (Homo sapiens, UniProt P37288). In words: Vasopressin V1a receptor binding assay (125I-AVP displacement, CHO-K1 membranes). The conditions noted are these: selectivity quotient, human V1a vs human V1b receptor binding.
The target of test [2] is T1, human vasopressin V1b receptor (Homo sapiens, UniProt P47901).
T1 sequence (P47901 1-424): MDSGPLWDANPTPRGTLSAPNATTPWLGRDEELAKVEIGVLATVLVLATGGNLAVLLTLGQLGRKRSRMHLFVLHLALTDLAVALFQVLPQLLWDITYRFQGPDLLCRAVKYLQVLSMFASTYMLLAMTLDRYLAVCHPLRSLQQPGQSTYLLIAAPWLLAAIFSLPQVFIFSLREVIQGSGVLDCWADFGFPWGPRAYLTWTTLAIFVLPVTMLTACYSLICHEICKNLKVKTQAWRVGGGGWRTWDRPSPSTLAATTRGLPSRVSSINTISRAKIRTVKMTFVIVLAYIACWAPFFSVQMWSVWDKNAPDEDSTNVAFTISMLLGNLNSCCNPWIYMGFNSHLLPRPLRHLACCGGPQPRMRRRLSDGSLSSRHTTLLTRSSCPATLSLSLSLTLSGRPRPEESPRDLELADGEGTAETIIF
In words: biochemical.

Usually Ki stands for the dissociation constant of the complex between target and ligand, obtained from inhibition or displacement. Read a low Ki as a stronger hold on the target.

Chain of human vasopressin V1a receptor (P37288 whole entry): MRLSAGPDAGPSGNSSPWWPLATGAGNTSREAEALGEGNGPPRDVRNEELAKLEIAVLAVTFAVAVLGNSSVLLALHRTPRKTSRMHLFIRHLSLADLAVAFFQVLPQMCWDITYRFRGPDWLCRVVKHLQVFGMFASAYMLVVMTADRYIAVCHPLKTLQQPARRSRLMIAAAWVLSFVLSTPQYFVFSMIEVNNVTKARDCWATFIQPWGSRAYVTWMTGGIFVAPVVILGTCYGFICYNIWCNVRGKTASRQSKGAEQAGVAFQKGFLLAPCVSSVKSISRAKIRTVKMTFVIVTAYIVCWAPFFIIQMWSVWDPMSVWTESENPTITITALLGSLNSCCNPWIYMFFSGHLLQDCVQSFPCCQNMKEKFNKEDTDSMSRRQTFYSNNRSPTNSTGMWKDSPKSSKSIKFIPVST

`CCN(C1CCN(C2CN(C(=O)N[C@@]3(c4cccnc4OC)C(=O)N(S(=O)(=O)c4ccc(OC)cc4OC)c4ccc(C#N)cc43)C2)CC1)C1COC1` [Example 23, (S)—N-(5-Cyano-1-((2,4-dimethoxyphenyl)sulfonyl)-3-(2-methoxypyridin-3-yl)-2-oxoindolin-3-yl)-3-(4-(ethyl(oxetan-3-yl)amino)piperidin-1-yl)azetidine-1-carboxamide]: in test [1], the “Ki(h-V1a)/Ki(h-V1b)” value is “++ (25-75)”. In test [2], this molecule returned a Ki of 1 to 10 nM.
The matching figures for `CCOc1ncccc1[C@]1(NC(=O)N2CC(N3CCC(N4CCOCC4)CC3)C2)C(=O)N(S(=O)(=O)c2cc(F)c(OC)cc2OC)c2ccc(C#N)cc21` [Example 24, (S)—N-(5-Cyano-3-(2-ethoxypyridin-3-yl)-1-((5-fluoro-2,4-dimethoxyphenyl)sulfonyl)-2-oxoindolin-3-yl)-3-(4-morpholinopiperidin-1-yl)azetidine-1-carboxamide]: “+++ (>75)” and 1 to 10 nM.
On the same counts, the results for `CCOc1ncccc1[C@]1(NC(=O)N2CC(N3CCC(N4CCOCC4)CC3)C2)C(=O)N(S(=O)(=O)c2ccc(OC)cc2)c2ccc(C#N)cc21` [Example 25, (S)—N-(5-Cyano-3-(2-ethoxypyridin-3-yl)-1-((4-methoxyphenyl)sulfonyl)-2-oxoindolin-3-yl)-3-(4-morpholinopiperidin-1-yl)azetidine-1-carboxamide] are “++ (25-75)” and under 1 nM.
With `CCOc1ncccc1[C@]1(NC(=O)N2CC(N3CCC(N4CCOCC4)CC3)C2)C(=O)N(S(=O)(=O)c2ccc(OC)cc2F)c2ccc(C#N)cc21` [Example 27, (S)—N-(5-cyano-3-(2-ethoxypyridin-3-yl)-1-((2-fluoro-4-methoxyphenyl)sulfonyl)-2-oxoindolin-3-yl)-3-(4-morpholinopiperidin-1-yl)azetidine-1-carboxamide], the “Ki(h-V1a)/Ki(h-V1b)” value in test [1] was “+++ (>75)”. The molecule further showed a Ki in test [2] of under 1 nM.
On the same counts, the results for `CCOc1ncccc1[C@]1(NC(=O)N2CC(N3CCC(N4CCOCC4)CC3)C2)C(=O)N(S(=O)(=O)c2ccc(F)cc2OC)c2ccc(C#N)cc21` [Example 28, (S)—N-(5-cyano-3-(2-ethoxypyridin-3-yl)-1-((4-fluoro-2-methoxyphenyl)sulfonyl)-2-oxoindolin-3-yl)-3-(4-morpholinopiperidin-1-yl)azetidine-1-carboxamide] are “+++ (>75)” and 1 to 10 nM.
In the case of `COc1ccccc1S(=O)(=O)N1C(=O)[C@@](NC(=O)N2CC(N3CCC(N(C)C4COC4)CC3)C2)(c2cccnc2OC)c2cc(C#N)ccc21` [Example 29, (S)—N-(5-Cyano-1-((2-methoxyphenyl)sulfonyl)-3-(2-methoxypyridin-3-yl)-2-oxoindolin-3-yl)-3-(4-(methyl(oxetan-3-yl)amino)piperidin-1-yl)azetidine-1-carboxamide], the “Ki(h-V1a)/Ki(h-V1b)” value in test [1] is reported as “+ (10-<25)”. For the same molecule, in test [2], the Ki was in the range of 1 to 10 nM.
On the same counts, the results for `COc1cc(F)ccc1S(=O)(=O)N1C(=O)[C@@](NC(=O)N2CC(N3CCC(N(C)C4COC4)CC3)C2)(c2cccnc2OC)c2cc(C#N)ccc21` [Example 30, (S)—N-(5-Cyano-1-((4-fluoro-2-methoxyphenyl)sulfonyl)-3-(2-methoxypyridin-3-yl)-2-oxoindolin-3-yl)-3-(4-(methyl(oxetan-3-yl)amino)piperidin-1-yl)azetidine-1-carboxamide] are “+ (10-<25)” and 1 to 10 nM.
The matching figures for `COc1ncccc1[C@]1(NC(=O)N2CC(N3CCC(N(C)C4COC4)CC3)C2)C(=O)N(S(=O)(=O)c2ccc(F)cc2)c2ccc(C#N)cc21` [Example 31, (S)—N-(5-Cyano-1-((4-fluorophenyl)sulfonyl)-3-(2-methoxypyridin-3-yl)-2-oxoindolin-3-yl)-3-(4-(methyl(oxetan-3-yl)amino)piperidin-1-yl)azetidine-1-carboxamide]: “+ (10-<25)” and 1 to 10 nM.
Take `COc1ccc(S(=O)(=O)N2C(=O)[C@@](NC(=O)N3CC(N4CCC(N(C)C5COC5)CC4)C3)(c3cccnc3OC)c3cc(C#N)ccc32)c(F)c1` [Example 32, (S)—N-(5-Cyano-1-((2-fluoro-4-methoxyphenyl)sulfonyl)-3-(2-methoxypyridin-3-yl)-2-oxoindolin-3-yl)-3-(4-(methyl(oxetan-3-yl)amino)piperidin-1-yl)azetidine-1-carboxamide]: in test [1], the “Ki(h-V1a)/Ki(h-V1b)” value is given as “+ (10-<25)”. Moreover, the inhibitory constant (Ki) in test [2] was in the range of 1 to 10 nM.
As to `COc1ncccc1[C@]1(NC(=O)N2CC(N3CCC(N(C)C4COC4)CC3)C2)C(=O)N(S(=O)(=O)c2ccc(F)cc2F)c2ccc(C#N)cc21` [Example 33, (S)—N-(5-Cyano-1-((2,4-difluorophenyl)sulfonyl)-3-(2-methoxypyridin-3-yl)-2-oxoindolin-3-yl)-3-(4-(methyl(oxetan-3-yl)amino)piperidin-1-yl)azetidine-1-carboxamide], the “Ki(h-V1a)/Ki(h-V1b)” value in test [1] is recorded as “+ (10-<25)”. The Ki in test [2] was 10 to 100 nM.
The matching figures for `COc1ccc(S(=O)(=O)N2C(=O)[C@@](NC(=O)N3CC(N4CCC(N(C)C5COC5)CC4)C3)(c3cccnc3OC)c3cc(C#N)ccc32)cc1` [Example 35, (S)—N-(5-cyano-1-((4-methoxyphenyl)sulfonyl)-3-(2-methoxypyridin-3-yl)-2-oxoindolin-3-yl)-3-(4-(methyl(oxetan-3-yl)amino)piperidin-1-yl)azetidine-1-carboxamide]: “++ (25-75)” and 1 to 10 nM.
On the same counts, the results for `CCOc1ncccc1[C@]1(NC(=O)N2CC(N3CCC(N4CCOCC4)CC3)C2)C(=O)N(S(=O)(=O)c2ccc(OC)cn2)c2ccc(C#N)cc21` [Example 36, (S)—N-(5-Cyano-3-(2-ethoxypyridin-3-yl)-1-((5-methoxypyridin-2-yl)sulfonyl)-2-oxoindolin-3-yl)-3-(4-morpholinopiperidin-1-yl)azetidine-1-carboxamide×TFA] are “+ (10-<25)” and 1 to 10 nM.
As for `CCOc1ncccc1[C@]1(NC(=O)N2CC(N3CCC(N4CCOCC4)CC3)C2)C(=O)N(S(=O)(=O)c2ccccc2OC)c2ccc(C#N)cc21` [Example 37, (S)—N-(5-Cyano-3-(2-ethoxypyridin-3-yl)-1-((2-methoxyphenyl)sulfonyl)-2-oxoindolin-3-yl)-3-(4-morpholinopiperidin-1-yl)azetidine-1-carboxamide], in test [1], the “Ki(h-V1a)/Ki(h-V1b)” value is on record as “+++ (>75)”. The same molecule returned a Ki in test [2] of 1 to 10 nM.
Turning to `COc1ccc(S(=O)(=O)N2C(=O)[C@@](NC(=O)N3CC(N4CCC(N(C(C)C)C5COC5)CC4)C3)(c3cccnc3OC)c3cc(C#N)ccc32)c(OC)c1` [Example 38, (S)—N-(5-Cyano-1-((2,4-dimethoxyphenyl)sulfonyl)-3-(2-methoxypyridin-3-yl)-2-oxoindolin-3-yl)-3-(4-(isopropyl(oxetan-3-yl)amino)piperidin-1-yl)azetidine-1-carboxamide], in test [1], the “Ki(h-V1a)/Ki(h-V1b)” value is on record as “+ (10-<25)”. Moreover, the inhibition constant Ki in test [2] fell in the range of 10 to 100 nM.
In the case of `CCOc1ncccc1[C@]1(NC(=O)N2CC(N3CCC(N4CC(F)(F)C4)CC3)C2)C(=O)N(S(=O)(=O)c2ccc(OC)cc2OC)c2ccc(C#N)cc21` [Example 39, (S)—N-(5-Cyano-1-((2,4-dimethoxyphenyl)sulfonyl)-3-(2-ethoxypyridin-3-yl)-2-oxoindolin-3-yl)-3-(4-(3,3-difluoroazetidin-1-yl)piperidin-1-yl)azetidine-1-carboxamide], in test [1], the “Ki(h-V1a)/Ki(h-V1b)” value was “+++ (>75)”. In test [2], this molecule yielded a Ki of 10 to 100 nM.
The matching figures for `CCOc1ncccc1[C@]1(NC(=O)N2CC(N3CCC(N4CCC(F)(F)CC4)CC3)C2)C(=O)N(S(=O)(=O)c2ccc(OC)cc2OC)c2ccc(C#N)cc21` [Example 40, (S)—N-(5-Cyano-1-((2,4-dimethoxyphenyl)sulfonyl)-3-(2-ethoxypyridin-3-yl)-2-oxoindolin-3-yl)-3-(4,4-difluoro-[1,4′-bipiperidin]-1′-yl)azetidine-1-carboxamide]: “+++ (>75)” and under 1 nM.
On the same counts, the results for `CCOc1ncccc1[C@]1(NC(=O)N2CC(N3CCC(N4CC(OC)C4)CC3)C2)C(=O)N(S(=O)(=O)c2ccc(OC)cc2OC)c2ccc(C#N)cc21` [Example 41, (S)—N-(5-Cyano-1-((2,4-dimethoxyphenyl)sulfonyl)-3-(2-ethoxypyridin-3-yl)-2-oxoindolin-3-yl)-3-(4-(3-methoxyazetidin-1-yl)piperidin-1-yl)azetidine-1-carboxamide] are “+++ (>75)” and 1 to 10 nM.
On the same counts, the results for `CCOc1ncccc1[C@]1(NC(=O)N2CC(N3CCC(N4CCC(OC)CC4)CC3)C2)C(=O)N(S(=O)(=O)c2ccc(OC)cc2OC)c2ccc(C#N)cc21` [Example 42, (S)—N-(5-Cyano-1-((2,4-dimethoxyphenyl)sulfonyl)-3-(2-ethoxypyridin-3-yl)-2-oxoindolin-3-yl)-3-(4-methoxy-[1,4′-bipiperidin]-1′-yl)azetidine-1-carboxamide] are “+++ (>75)” and 1 to 10 nM.
On to `CCOc1ncccc1[C@]1(NC(=O)N2CC(N3CCC(N4CC(O)C4)CC3)C2)C(=O)N(S(=O)(=O)c2ccc(OC)cc2OC)c2ccc(C#N)cc21` [Example 43, (S)—N-(5-Cyano-1-((2,4-dimethoxyphenyl)sulfonyl)-3-(2-ethoxypyridin-3-yl)-2-oxoindolin-3-yl)-3-(4-(3-hydroxyazetidin-1-yl)piperidin-1-yl)azetidine-1-carboxamide], for which the “Ki(h-V1a)/Ki(h-V1b)” value in test [1] is “+++ (>75)”. The molecule further showed a Ki in test [2] of 1 to 10 nM.
